The assay has as its target T1, Catalase (Rattus norvegicus, UniProt P04762).
T1 sequence (P04762 whole entry): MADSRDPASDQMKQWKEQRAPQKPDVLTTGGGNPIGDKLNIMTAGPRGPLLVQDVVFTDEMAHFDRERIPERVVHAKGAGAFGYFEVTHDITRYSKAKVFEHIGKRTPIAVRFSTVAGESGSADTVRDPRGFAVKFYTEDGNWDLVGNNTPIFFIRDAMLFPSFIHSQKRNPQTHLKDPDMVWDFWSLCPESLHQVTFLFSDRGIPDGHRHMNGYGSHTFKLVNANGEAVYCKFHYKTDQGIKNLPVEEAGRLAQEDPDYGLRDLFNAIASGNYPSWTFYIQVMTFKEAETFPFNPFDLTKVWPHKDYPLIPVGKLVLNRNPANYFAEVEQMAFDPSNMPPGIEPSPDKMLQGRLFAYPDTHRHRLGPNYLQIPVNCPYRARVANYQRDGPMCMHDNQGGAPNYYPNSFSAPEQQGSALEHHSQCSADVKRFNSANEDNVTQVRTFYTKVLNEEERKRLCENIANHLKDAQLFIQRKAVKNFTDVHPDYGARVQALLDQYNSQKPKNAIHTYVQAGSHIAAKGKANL
The experiment in a line: Inhibition of catalase in Wistar rat brain.

The record followed here is BindingDB's records for doi:10.1016/j.ejmech.2009.09.045 (Sri Venkateswara University, 2010).

Broadly, the EC50 is the concentration giving half of the maximal effect. A high value points to a less potent agent.

With `COc1ccc2c3c1O[C@H]1C[C@@H](OP(=O)(NCCO)Oc4ccc([N+](=O)[O-])cc4)C=C[C@@]31CCN(C)C2` (some centres not stated), the EC50 was 9.29 µM.

With `COc1ccc2c3c1O[C@H]1C[C@@H](OP(=O)(OCCO)Oc4ccc([N+](=O)[O-])cc4)C=C[C@@]31CCN(C)C2` (some centres not stated), a half-maximal effect (EC50) was put at 6.15 µM. The value for `COc1ccc2c3c1O[C@H]1C[C@@H](O)C=C[C@@]31CCN(C)C2` [galantamine] was 17.6 µM. Consider `COc1ccc2c3c1O[C@H]1C[C@@H](OP(=O)(SCCO)N(CCCl)CCCl)C=C[C@@]31CCN(C)C2` (some centres not stated), for which the EC50 worked out at 3.02 µM. The value for `COc1ccc2c3c1O[C@H]1C[C@@H](OP(=O)(NCCN)N(CCCl)CCCl)C=C[C@@]31CCN(C)C2` (some centres not stated) was 5.11 µM; that for `Cc1c(C)c2c(c(C)c1O)CC[C@@](C)(CCC[C@H](C)CCC[C@H](C)CCCC(C)C)O2` [CHEBI:18145] was 3.43 µM; that for `COc1ccc2c3c1O[C@H]1C[C@@H](OP(=O)(NCCO)N(CCCl)CCCl)C=C[C@@]31CCN(C)C2` (some centres not stated) was 2.84 µM.

For `COc1ccc2c3c1O[C@H]1C[C@@H](OP(=O)(Oc4ccc([N+](=O)[O-])cc4)SCCO)C=C[C@@]31CCN(C)C2` (some centres not stated), the EC50 is 7.74 µM.

The molecule `COc1ccc2c3c1O[C@H]1C[C@@H](OP(=O)(Oc4ccc([N+](=O)[O-])cc4)OP(=O)(O)O)C=C[C@@]31CCN(C)C2` (some centres not stated) gave an EC50 of 5.13 µM.

Molecule `COc1ccc2c3c1O[C@H]1C[C@@H](OP(=O)(OCCO)N(CCCl)CCCl)C=C[C@@]31CCN(C)C2` (some centres not stated) had an EC50 of 4.12 µM. The value for `COc1ccc2c3c1O[C@H]1C[C@@H](OP(=O)(NCCN)Oc4ccc([N+](=O)[O-])cc4)C=C[C@@]31CCN(C)C2` (some centres not stated) was 3.41 µM; that for `COc1ccc2c3c1O[C@H]1C[C@@H](OP(=O)(OP(=O)(O)O)N(CCCl)CCCl)C=C[C@@]31CCN(C)C2` (some centres not stated) was 3.81 µM.
